Common to all, as to assay: NCI tumour cell line growth inhibition, 48 h
The subject of assay [1] is BT-549.
Assay [2] concerns COLO 205.
Assay [3] deals with DU-145.
Assay [4] concerns HCC 2998.
For assay [5], the system named is HOP-62.
The subject of assay [6] is HT-29.
Assay [7] concerns Hs-578T.
In assay [8] the test system is IGROV-1.
Assay [9] relates to MDA-MB-231.
Assay [10] relates to MDA-N.
Assay [11] relates to NCI-H226.
For assay [12], the system named is OVCAR-4.
Assay [13] concerns OVCAR-5.
Assay [14] deals with OVCAR-8.
For assay [15], the system named is PC-3.
Assay [16] relates to RPMI-8226.
Assay [17] relates to SF-268.
Assay [18] relates to SW-620.
Assay [19] has as its system U-251.
Assay [20] relates to UACC-62.

Each structure is given as a SMILES string.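 Five concentrations, 48 hours, 96-well plates. Here, GI50 denotes the concentration required for 50% inhibition of growth.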 Active and inactive are the calls of the source. No stated cut-off is given here; in the data, active = GI50 up to about 1.1 µM and inactive = higher. A value given as a limit tells only on which side of the number the result lay.

Take `COc1cc2c(cc1O)CC1c3c(cc(O)c(OC)c3-2)CCN1C` (stereo not given): the GI50 in assay [1] was > 100 µM (inactive); in assay [2] it was > 73.5 µM (inactive); in assay [3], > 100 µM (inactive); in assay [4], > 100 µM (inactive); in assay [5], > 100 µM (inactive); in assay [6], 62.2 µM (inactive). The GI50 in assay [7] was > 100 µM (inactive); in assay [8], > 100 µM (inactive); in assay [9], > 100 µM (inactive); in assay [10], > 100 µM (inactive); in assay [11], 69.7 µM (inactive); in [12], > 100 µM (inactive). Moreover, the GI50 in assay [13] is > 100 µM (inactive); in assay [14] it was > 100 µM (inactive); in assay [15], > 96.6 µM (inactive); in assay [16], > 100 µM (inactive); in [17], > 100 µM (inactive); in assay [18], > 100 µM (inactive). The GI50 is > 86.1 µM (inactive) in [19] and > 100 µM (inactive) in assay [20].
As for `CN(C)Cc1cc(Cl)c(O)c(CN(C)C)c1`, the GI50 in assay [1], in assay [2], in assay [3], in assay [4], in assay [5] and in assay [6] was > 100 µM (inactive) in each case. In addition, the GI50 in [7], in assay [8], in assay [9], in assay [10], in assay [11] and in [12] was > 100 µM (inactive) throughout. Further, the GI50 in assay [13], in assay [14], in assay [15], in assay [16], in [17] and in assay [18] was > 100 µM (inactive) throughout. Moreover, the GI50 in [19] and in assay [20] was > 100 µM (inactive) throughout.
Regarding `O=c1ccn(CC2(CO)CCC2)c(=O)[nH]1`, the GI50 in assay [1], in assay [2], in assay [3], in [4], in assay [5] and in assay [6] was > 100 µM (inactive) in each case. The GI50 in assay [7], in [8], in [9], in [10], in assay [11] and in assay [12] was > 100 µM (inactive) in each case. The GI50 in assay [13], in assay [14], in [15], in assay [16], in assay [17] and in [18] was > 100 µM (inactive) each time. In addition, the GI50 in [19] and in assay [20] was > 100 µM (inactive) throughout.
Turning to `COC(=O)C1=C(C)NC(C)=C(C(=O)OC)C1c1cccc(NO)c1`, the GI50 in assay [1] is 18.4 µM (inactive); in assay [2] it was 16.7 µM (inactive); in [3], 22 µM (inactive); in [4], 56.8 µM (inactive); in [5] it was 32.3 µM (inactive); in [6], 16 µM (inactive). Further, the GI50 was 18.4 µM (inactive) in assay [7]; 16.7 µM (inactive) in [8]; 16.6 µM (inactive) in assay [9]; 15.1 µM (inactive) in [10]; 15.2 µM (inactive) in assay [11]; 13.9 µM (inactive) in [12]. The GI50 in assay [13] was 16.4 µM (inactive); in [14] it was 16.4 µM (inactive); in [15] it was 15 µM (inactive); in [16], > 100 µM (inactive); in assay [17], 16.6 µM (inactive); in [18], 13.7 µM (inactive). The GI50 in assay [19] was 16.1 µM (inactive); in assay [20], 17.5 µM (inactive).
In the case of `COC(=O)c1ccccc1/C=C1\Cc2ccc3c(c2C1=O)CCCC3`, the GI50 in assay [1], in assay [2], in [3], in assay [4], in [5] and in assay [6] was > 100 µM (inactive) throughout. The GI50 in assay [7], in assay [8], in assay [9], in assay [10], in assay [11] and in [12] was > 100 µM (inactive) throughout. Moreover, the GI50 in assay [13], in [14], in assay [15], in assay [16], in assay [17] and in [18] was > 100 µM (inactive) each time. Moreover, the GI50 in assay [19] and in assay [20] was > 100 µM (inactive) each time.
Turning to `Oc1cc2c3c(c1)CCCN3CCC2`, the GI50 in [1], in assay [2], in assay [3], in [4], in [5] and in assay [6] was > 10 µM (inactive) each time. Besides, the GI50 in assay [7], in assay [8], in assay [9], in assay [10], in assay [11] and in assay [12] was > 10 µM (inactive) throughout. Besides, the GI50 in [13], in assay [14], in [15], in [16], in assay [17] and in assay [18] was > 10 µM (inactive) in each case. Besides, the GI50 in assay [19] and in assay [20] was > 10 µM (inactive) in each case.
Consider `CCN1CCC(O)(/C=C/c2ccc(C)cc2C)C(C(=O)/C=C/c2ccc(C)cc2C)C1` (stereo not given), for which the GI50 in assay [1] is 2.79 µM (inactive); in [2] it was 1.98 µM (inactive); in assay [3], 4.59 µM (inactive); in assay [4], 1.69 µM (inactive); in [5], 2.89 µM (inactive); in assay [6], 2.16 µM (inactive). Further, the GI50 in assay [7] is 2.09 µM (inactive); in assay [8], 2.89 µM (inactive); in assay [9] it was 2.23 µM (inactive); in [10], 2.2 µM (inactive); in [11], 2.77 µM (inactive); in assay [12] it was 2.99 µM (inactive). Besides, the GI50 was 4.29 µM (inactive) in [13]; 2.09 µM (inactive) in assay [14]; 2.5 µM (inactive) in [15]; 4.76 µM (inactive) in [16]; 2.4 µM (inactive) in [17]; 3.16 µM (inactive) in [18]. Moreover, the GI50 is 3.39 µM (inactive) in assay [19] and 3.41 µM (inactive) in assay [20].
For `CCN(CC)c1ccc(/C=C2/C[N+](C)(C)C/C(=C/c3ccc(N(CC)CC)cc3)C2=O)cc1`, the GI50 is 1.61 µM (inactive) in assay [1]; 1.29 µM (inactive) in assay [2]; 6.05 µM (inactive) in [3]; 2.42 µM (inactive) in assay [4]; 5.55 µM (inactive) in assay [5]; 1.58 µM (inactive) in [6]. Also, the GI50 is 2.47 µM (inactive) in assay [7]; 2.19 µM (inactive) in assay [8]; 2.58 µM (inactive) in assay [9]; 1.66 µM (inactive) in assay [10]; 6.21 µM (inactive) in assay [11]; 3.01 µM (inactive) in assay [12]. Further, the GI50 was 9.73 µM (inactive) in assay [13]; 3.32 µM (inactive) in assay [14]; 3.05 µM (inactive) in assay [15]; 0.653 µM (active) in assay [16]; 2.58 µM (inactive) in [17]; 2.67 µM (inactive) in assay [18]. Besides, the GI50 in assay [19] was 2.37 µM (inactive); in [20], 2.01 µM (inactive).
On to `CCC1CCC2C3CC=C4CC(OC(C)=O)C(N)CC4(C)C3CCC12C` (stereo not given), for which the GI50 is 4.93 µM (inactive) in [1]; 5.18 µM (inactive) in assay [2]; 2.92 µM (inactive) in assay [3]; 1.59 µM (inactive) in [4]; 2.08 µM (inactive) in [5]; 2.36 µM (inactive) in assay [6]. Also, the GI50 in [7] is 1.93 µM (inactive); in assay [8], 6.4 µM (inactive); in assay [9], 1.95 µM (inactive); in assay [10], 2.7 µM (inactive); in assay [11], 20.2 µM (inactive); in assay [12] it was 4.94 µM (inactive). Also, the GI50 is 6.21 µM (inactive) in assay [13]; 2.05 µM (inactive) in [14]; 2.71 µM (inactive) in assay [15]; 2.69 µM (inactive) in [16]; 2.71 µM (inactive) in assay [17]; 3.21 µM (inactive) in assay [18]. Besides, the GI50 in [19] is 1.86 µM (inactive); in [20], 4.89 µM (inactive).
With `O=C(NC1=C(Cl)C(=O)c2ccccc2C1=O)c1ccccc1`, the GI50 was 19.9 µM (inactive) in assay [1]; 15.5 µM (inactive) in assay [2]; 55.1 µM (inactive) in assay [3]; 46.5 µM (inactive) in [4]; 85.3 µM (inactive) in assay [5]; 29.3 µM (inactive) in [6]. Moreover, the GI50 in assay [7] was 69 µM (inactive); in [8] it was 21.8 µM (inactive); in assay [9] it was 32.9 µM (inactive); in assay [10], 5.04 µM (inactive); in assay [11], 24.5 µM (inactive); in assay [12], 45.1 µM (inactive). The GI50 in [13] is 47.1 µM (inactive); in assay [14], 43.2 µM (inactive); in assay [15], 24.9 µM (inactive); in assay [16], 44.4 µM (inactive); in assay [17], 64.1 µM (inactive); in assay [18] it was 17.3 µM (inactive). Also, the GI50 in assay [19] was 27.8 µM (inactive); in assay [20], 24.1 µM (inactive).
